Measured values taken from paper PMC6320863, “Interaction of Chrysin and Its Main Conjugated Metabolites Chrysin-7-Sulfate and Chrysin-7-Glucuronide with Serum Albumin” (International Journal of Molecular Sciences, 2018).

Assays:
[1] = tested on: T1, warfarin–HSA complex; test: Steady-state fluorescence of warfarin–HSA complex (displacement of warfarin); type: binding, human; details: 1.0 µmol/L warfarin, 3.5 µmol/L HSA, flavonoid 0.5–10 µmol/L, λex 317 nm
T1 construct: purchased Sigma-Aldrich
Method: (§1) Fluorescence spectroscopic measurements were carried out employing a Hitachi F-4500 fluorimeter (Tokyo, Japan). Absorption spectra of flavonoids were recorded using a HALO DB-20 UV-Vis spectrophotometer (Dynamica, London, UK). Spectroscopic measurements were performed in phosphate-buffered saline (pH 7.4; PBS: 8.0 g/L NaCl, 0.2 g/L KCl, 1.81 g/L Na2HPO4·2H2O, and 0.24 g/L KH2PO4) at room temperature, in the presence of air.
Displacement of warfarin (site marker of Sudlow’s Site I) from HSA was examined based on the previously reported model. Increasing concentrations of chrysin, C7S, and C7G (0.0, 0.5, 1.0, 2.0, 3.0, 5.0, and 10 µmol/L) were added to standard concentrations of warfarin and HSA (1.0 and 3.5 µmol/L, respectively). Thereafter, fluorescence emission spectra were recorded using 317 nm as excitation wavelength.

[2] = molecular target: T2, human serum albumin (HSA) (Homo sapiens, UniProt P02768); test: Fluorescence quenching of HSA by flavonoids (Stern–Volmer and Hyperquad2006 evaluation); type: binding; details: for Kd / logKSV (Stern–Volmer quenching constant): HSA 2 µmol/L, decimal log ± SEM; for Kd: PBS pH 7.4, Hyperquad2006, read-out: logK (binding constant) (converted); for logKSV (Stern–Volmer quenching constant): PBS pH 7.4, λex 295 nm, λem 340 nm; for Stability of flavonoid–HSA complex vs. the chrysin–HSA complex: relative to chrysin–HSA
T2 construct: purchased Sigma-Aldrich
Method: as §1
(§2) The complex formation of flavonoids with albumin was tested with both HSA and BSA. Binding constants of flavonoid–albumin complexes were determined by fluorescence quenching, during which emission spectra of albumins (2 µmol/L) were recorded in the presence of increasing flavonoid concentrations (0.0, 0.5, 1.0, 2.0, 3.0, 4.0 and 5.0 µmol/L; λexc = 295 nm). Quenching studies were evaluated based on the graphical application of the Stern–Volmer equation [31, 34]. To eliminate the potential inner filter effects of flavonoids, fluorescence intensities were corrected as described.
(§3) Binding constants (K) of flavonoid–albumin complexes were also evaluated by non-linear fitting employing the Hyperquad2006 program package (Protonic Software, Leeds, UK) as described elsewhere. Binding constants and stoichiometry were quantified based on the model with the lowest standard deviation.

[3] = tested on: T3, warfarin–HSA complex (Sudlow's Site I); test: Ultrafiltration: displacement of Site I marker warfarin from HSA; type: binding, human; details: 1 µmol/L warfarin, 5 µmol/L HSA, PBS pH 7.4
T3 construct: purchased Sigma-Aldrich
Method: (§4) Effects of chrysin, C7S, and C7G on the albumin-binding of Sudow’s Site I (warfarin) and Site II (naproxen) markers were tested by ultrafiltration. In these experiments, Pall Microsep^TM Advance Centrifugal Devices (Pall Corporation, Ann Arbor, MI, USA) (from VWR) with a 30 kDa molecular weight cut-off value were employed, as described elsewhere. To examine the displacement of warfarin by flavonoids, samples contained warfarin and HSA (1.0 and 5.0 µmol/L, respectively) in the absence and presence of flavonoids (10 or 20 µmol/L). Furthermore, to test the displacing ability of chrysin and its metabolites vs. naproxen, flavonoids (10 or 20 µmol/L) were added to naproxen and HSA (1.0 and 1.7 µmol/L, respectively). Each sample was prepared in PBS (pH 7.4). Before ultrafiltration, filter units were washed once with 3 mL of water, and twice with 3 mL of PBS (to completely eliminate glycerol from the filters). Thereafter, samples (2.5 mL each) were driven through the filter units by centrifugation at 7500 g and 25 °C for 10 min (fixed angle rotor). Concentrations of warfarin and naproxen in the filtrate were quantified with HPLC (see details in Section 4.4).
(§5) The HPLC system used to quantify warfarin and naproxen was equipped with a pump (model 510, Waters, Milford, MA, USA) and an injector (Rheodyne 7125, Rheodyne, Berkeley, CA, USA) with a 20 µL sample loop. Warfarin and naproxen were analyzed with a fluorescence detector (Jasco FP-920, Reanal) and an UV detector (Waters 486), respectively. Data were evaluated using Millennium Chromatography Manager (Waters).
Warfarin was analyzed based on the previously reported method without modifications. Methanol (VWR), acetonitrile (VWR), and sodium phosphate buffer (20 mM, pH 7.0) (25:5:70 v/v%) were applied in the mobile phase with 1 mL/min flow rate during the isocratic elution. Samples were driven through a guard column (Phenomenex SecurityGuard^TM Catridge C18 4.0 × 3.0 mm) linked to an analytical column (Nova-Pak C18 150 × 3.9 mm, 4 μm). Separation and analysis were performed at room temperature, during which warfarin was detected by fluorescence employing 310 and 390 nm as excitation and emission wavelengths, respectively.

[4] = molecular target: T4, bovine serum albumin (BSA) (Bos taurus, UniProt P02769); test: Fluorescence quenching of BSA by flavonoids (Stern–Volmer and Hyperquad2006 evaluation); type: binding; details: BSA 2 µmol/L, decimal log ± SEM; for Kd: PBS pH 7.4, Hyperquad2006, read-out: logK (binding constant) (converted); for logKSV (Stern–Volmer quenching constant): PBS pH 7.4, λex 295 nm, λem 340 nm
T4 construct: purchased Sigma-Aldrich
Method: as §1, §2, §3

[5] = molecular target: HSA; details: cited from earlier work
[6] = tested on: T1, warfarin–HSA complex; test: Fluorescence anisotropy of warfarin–HSA complex; type: binding, human; details: 1.0 µmol/L warfarin, 2.0 µmol/L HSA, increasing flavonoid concentrations, λex 317 nm, λem 379 nm
Method: as §1
To confirm further the displacement of warfarin from HSA by chrysin, C7S, and C7G, fluorescence anisotropy measurements were also performed. Increasing concentrations of flavonoids (0.0, 1.0, 2.0, 5.0, and 10 µmol/L) were added to warfarin and HSA (1.0 and 2.0 µmol/L, respectively). Fluorescence anisotropy values were determined (λex = 317 nm; λem = 379 nm) as described.

[7] = parameters: method as in PMID 25715997; details: mice, oral administration of 20 mg/kg chrysin; read-out: Cmax (peak plasma concentration); cited from earlier work
[8] = tested on: T5, naproxen–HSA complex (Sudlow's Site II); test: Ultrafiltration: displacement of Site II marker naproxen from HSA; type: binding, human; details: 1 µmol/L naproxen, 1.7 µmol/L HSA, PBS pH 7.4
T5 construct: purchased Sigma-Aldrich
Method: as §4, §5
Naproxen was quantified based on the previously reported method without modifications. Acetonitrile and sodium acetate buffer (6.9 mM, pH 4.0) (50:50 v/v%) were applied in the mobile phase with a 1 mL/min flow rate during the isocratic elution. […] Separation and analysis were performed at room temperature, during which naproxen was detected by absorbance at 230 nm.

[9] = parameters: method as in PMID 11259985; details: healthy human volunteers, 400 mg chrysin orally; cited from earlier work
[10] = 10 and 20 μM flavonoid (both concentrations)
[11] = 10 or 20 μM flavonoid (both concentrations)

T4 sequence (P02769 25-607): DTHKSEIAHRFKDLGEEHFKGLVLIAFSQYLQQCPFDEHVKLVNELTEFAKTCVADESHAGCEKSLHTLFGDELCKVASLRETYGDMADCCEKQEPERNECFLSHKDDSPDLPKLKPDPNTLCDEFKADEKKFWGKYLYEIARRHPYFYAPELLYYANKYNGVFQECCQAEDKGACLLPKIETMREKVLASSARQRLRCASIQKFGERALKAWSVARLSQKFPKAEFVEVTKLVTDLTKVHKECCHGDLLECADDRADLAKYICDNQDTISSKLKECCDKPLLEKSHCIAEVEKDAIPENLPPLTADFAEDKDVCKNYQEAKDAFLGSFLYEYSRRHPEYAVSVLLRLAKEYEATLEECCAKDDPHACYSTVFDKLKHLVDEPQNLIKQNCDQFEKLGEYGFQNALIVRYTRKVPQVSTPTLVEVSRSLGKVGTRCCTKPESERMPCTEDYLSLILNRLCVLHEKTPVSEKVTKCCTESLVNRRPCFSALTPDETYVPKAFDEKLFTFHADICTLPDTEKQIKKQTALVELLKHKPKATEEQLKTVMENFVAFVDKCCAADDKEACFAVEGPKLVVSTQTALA
T2 sequence (P02768 25-609): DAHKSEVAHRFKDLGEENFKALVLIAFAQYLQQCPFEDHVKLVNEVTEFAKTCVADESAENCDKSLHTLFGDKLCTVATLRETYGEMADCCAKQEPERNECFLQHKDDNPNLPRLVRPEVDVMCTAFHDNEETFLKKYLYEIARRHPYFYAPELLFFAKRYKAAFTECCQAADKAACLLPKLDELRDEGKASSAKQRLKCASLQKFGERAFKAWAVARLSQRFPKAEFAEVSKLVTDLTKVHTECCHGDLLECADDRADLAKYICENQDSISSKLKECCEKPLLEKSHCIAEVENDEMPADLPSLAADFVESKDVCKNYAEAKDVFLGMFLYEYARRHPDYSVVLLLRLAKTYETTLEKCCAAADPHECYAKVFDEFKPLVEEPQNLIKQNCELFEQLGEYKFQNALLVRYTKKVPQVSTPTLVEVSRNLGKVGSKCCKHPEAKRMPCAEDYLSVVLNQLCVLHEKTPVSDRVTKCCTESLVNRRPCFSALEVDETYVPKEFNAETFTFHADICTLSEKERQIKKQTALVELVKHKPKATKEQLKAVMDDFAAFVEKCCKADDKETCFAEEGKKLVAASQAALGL

Row | SMILES | Fluorescence emission signal of warfarin at 379 nm [1] | Kd [2] [µM] | logKSV (Stern–Volmer quenching constant) [2] [L/mol] | Concentration of warfarin in the filtrate ([3]; 20 μM flavonoid) | Kd [4] [µM] | logKSV (Stern–Volmer quenching constant) [4] [L/mol] | K (binding constant to HSA) [5] | Fluorescence anisotropy of warfarin [6] | Cmax [7] [nM] | Concentration of naproxen in the filtrate [8, 10] | AUC0–∞ [9] [ng·h/mL] | Stability of flavonoid–HSA complex vs. the chrysin–HSA complex [2] | Concentration of warfarin in the filtrate [3, 11] | Concentration of naproxen in the filtrate ([8]; higher flavonoid concentration (20 μM)) | Concentration of warfarin in the filtrate ([3]; 10 μM flavonoid) | AUC0–∞ of C7S compared with chrysin [9] | logK (complex with HSA) [5]
1 | O=c1cc(-c2ccccc2)oc2cc(O)cc(O)c12 [Chrysin, 5,7-dihydroxyflavone] | significantly decreased | 3.89 | 5.25 ± 0.02 | statistically significant (albeit slight) increase | 6.31 | 5.03 ± 0.06 | 10^5–10^6 L/mol | strong decrease | 10 | statistically significant elevation | 3 to 16 |  |  |  |  |  | 
2 | O=C(O)C1OC(Oc2cc(O)c3c(=O)cc(-c4ccccc4)oc3c2)C(O)C(O)C1O (stereo not shown) [Chrysin-7-glucuronide, chrysin-7-glucuronide] | only a slight (but statistically significant) effect | 12.9 | 4.71 ± 0.03 |  | 23.4 | 4.34 ± 0.03 |  |  | 130 |  |  | threefold lower | did not significantly change | significant effect |  |  | 
3 | O=c1cc(-c2ccccc2)oc2cc(OS(=O)(=O)O)cc(O)c12 [Chrysin-7-sulfate, chrysin-7-sulfate] | strongest decrease | 1.32 | 5.61 ± 0.03 |  | 0.631 | 5.86 ± 0.04 |  | strong decrease | 160 | statistically significant elevation | 420 to 4220 | threefold higher | practically the complete displacement of bound warfarin molecules from HSA |  | remarkable increase | approximately 30 fold | 
4 | C[C@@H]1Cc2c(Cl)cc(C(=O)N[C@@H](Cc3ccccc3)C(=O)O)c(O)c2C(=O)O1 [Ochratoxin A, ochratoxin A, reference compound] |  |  |  |  |  |  |  |  |  |  |  |  |  |  |  |  | 7.4–7.6
